# Data as given in patent US20100242139A1, “XENOHORMESIS BASED COMPOSITIONS AND METHODS” (President and Fellows of Harvard College, priority 2006, published 2010).
# Experiments:
# LIMK1(h) = LIMK1(h) (Homo sapiens, UniProt P53667); test: kinase panel activity, LIMK1(h); type: biochemical; settings: compound at 20 μM; vs reference with no compound
# PAK6(h) = PAK6(h) (Homo sapiens, UniProt Q9NQU5); test: kinase panel activity, PAK6(h); type: biochemical; settings: compound at 20 μM; vs reference with no compound
# PKG1β(h) = PKG1β(h) (Homo sapiens, UniProt Q13976); test: kinase panel activity, PKG1β(h); type: biochemical; settings: compound at 20 μM; vs reference with no compound
# cSRC(h) = cSRC(h) (Homo sapiens, UniProt P12931); test: kinase panel activity, cSRC(h); type: biochemical; settings: compound at 20 μM; vs reference with no compound
# NEK7(h) = NEK7(h) (Homo sapiens, UniProt Q8TDX7); test: kinase panel activity, NEK7(h); type: biochemical; settings: compound at 20 μM; vs reference with no compound
# IRR(h) = IRR(h) (Homo sapiens, UniProt P14616); test: kinase panel activity, IRR(h); type: biochemical; settings: compound at 20 μM; vs reference with no compound
# CDK2/cyclinA(h) = CDK2/cyclinA(h) (Homo sapiens, UniProt P24941); test: kinase panel activity, CDK2/cyclinA(h); type: biochemical; settings: compound at 20 μM; vs reference with no compound
# IRAK1(h) = IRAK1(h) (Homo sapiens, UniProt P51617); test: kinase panel activity, IRAK1(h); type: biochemical; settings: compound at 20 μM; vs reference with no compound
# CDK1/cyclinB(h) = CDK1/cyclinB(h) (Homo sapiens, UniProt P06493); test: kinase panel activity, CDK1/cyclinB(h); type: biochemical; settings: compound at 20 μM; vs reference with no compound
# JNK3(h) = JNK3(h) (Homo sapiens, UniProt P53779); test: kinase panel activity, JNK3(h); type: biochemical; settings: compound at 20 μM; vs reference with no compound
# MAPK1(h) = MAPK1(h) (Homo sapiens, UniProt P27361); test: kinase panel activity, MAPK1(h); type: biochemical; settings: compound at 20 μM; vs reference with no compound
# SAPK2b(h) = SAPK2b(h) (Homo sapiens, UniProt Q15759); test: kinase panel activity, SAPK2b(h); type: biochemical; settings: compound at 20 μM; vs reference with no compound
# ZAP-70(h) = ZAP-70(h) (Homo sapiens, UniProt P43403); test: kinase panel activity, ZAP-70(h); type: biochemical; settings: compound at 20 μM; vs reference with no compound
# ALK4(h) = ALK4(h) (Homo sapiens, UniProt P36896); test: kinase panel activity, ALK4(h); type: biochemical; settings: compound at 20 μM; vs reference with no compound
# CHK2(h) = CHK2(h) (Homo sapiens, UniProt O96017); test: kinase panel activity, CHK2(h); type: biochemical; settings: compound at 20 μM; vs reference with no compound
# CDK2/cyclinE(h) = CDK2/cyclinE(h) (Homo sapiens, UniProt P24941); test: kinase panel activity, CDK2/cyclinE(h); type: biochemical; settings: compound at 20 μM; vs reference with no compound
# TBK1(h) = TBK1(h) (Homo sapiens, UniProt Q9UHD2); test: kinase panel activity, TBK1(h); type: biochemical; settings: compound at 20 μM; vs reference with no compound
# PKBγ(h) = PKBγ(h) (Homo sapiens, UniProt Q9Y243); test: kinase panel activity, PKBγ(h); type: biochemical
# CDK3/cyclinE(h) = CDK3/cyclinE(h) (Homo sapiens, UniProt Q00526); test: kinase panel activity, CDK3/cyclinE(h); type: biochemical; settings: compound at 20 μM; vs reference with no compound
# PKA(h) = PKA(h) (Homo sapiens, UniProt P17612); test: kinase panel activity, PKA(h); type: biochemical; settings: compound at 20 μM; vs reference with no compound
# CHK1(h) = CHK1(h) (Homo sapiens, UniProt O14757); test: kinase panel activity, CHK1(h); type: biochemical; settings: compound at 20 μM; vs reference with no compound
# CDK6/cyclinD3(h) = CDK6/cyclinD3(h) (Homo sapiens, UniProt Q00534); test: kinase panel activity, CDK6/cyclinD3(h); type: biochemical; settings: compound at 20 μM; vs reference with no compound
# IR(h) = IR(h) (Homo sapiens, UniProt P06213); test: kinase panel activity, IR(h); type: biochemical; settings: compound at 20 μM; vs reference with no compound
# MAPK2(h) = MAPK2(h) (Homo sapiens, UniProt P28482); test: kinase panel activity, MAPK2(h); type: biochemical; settings: compound at 20 μM; vs reference with no compound
# SIK(h) = SIK(h) (Homo sapiens, UniProt P57059); test: kinase panel activity, SIK(h); type: biochemical; settings: compound at 20 μM; vs reference with no compound
# AMPK(r) = test: kinase panel activity, AMPK(r); type: biochemical, rat; settings: compound at 20 μM; vs reference with no compound
# Snk(h) = Snk(h) (Homo sapiens, UniProt Q9NYY3); test: kinase panel activity, Snk(h); type: biochemical; settings: compound at 20 μM; vs reference with no compound
# IGF-1R(h) = IGF-1R(h) (Homo sapiens, UniProt P08069); test: kinase panel activity, IGF-1R(h); type: biochemical; settings: compound at 20 μM; vs reference with no compound
# MSK1(h) = MSK1(h) (Homo sapiens, UniProt O75582); test: kinase panel activity, MSK1(h); type: biochemical; settings: compound at 20 μM; vs reference with no compound
# SAPK3(h) = SAPK3(h) (Homo sapiens, UniProt P53778); test: kinase panel activity, SAPK3(h); type: biochemical; settings: compound at 20 μM; vs reference with no compound
# GSK3α(h) = GSK3α(h) (Homo sapiens, UniProt P49840); test: kinase panel activity, GSK3α(h); type: biochemical; settings: compound at 20 μM; vs reference with no compound
# EphB2(h) = EphB2(h) (Homo sapiens, UniProt P29323); test: kinase panel activity, EphB2(h); type: biochemical; settings: compound at 20 μM; vs reference with no compound
# Tie2(h) = Tie2(h) (Homo sapiens, UniProt Q02763); test: kinase panel activity, Tie2(h); type: biochemical; settings: compound at 20 μM; vs reference with no compound
# TAK1(h) = TAK1(h) (Homo sapiens, UniProt O43318); test: kinase panel activity, TAK1(h); type: biochemical; settings: compound at 20 μM; vs reference with no compound
# Rsk2(h) = Rsk2(h) (Homo sapiens, UniProt P51812); test: kinase panel activity, Rsk2(h); type: biochemical; settings: for percent activity of Rsk2(h): compound at 20 μM, vs reference with no compound
# JNK2α2(h) = JNK2α2(h) (Homo sapiens, UniProt P45984); test: kinase panel activity, JNK2α2(h); type: biochemical; settings: compound at 20 μM; vs reference with no compound
# IKKβ(h) = IKKβ(h) (Homo sapiens, UniProt O14920); test: kinase panel activity, IKKβ(h); type: biochemical; settings: compound at 20 μM; vs reference with no compound
# TrkA(h) = TrkA(h) (Homo sapiens, UniProt P04629); test: kinase panel activity, TrkA(h); type: biochemical; settings: compound at 20 μM; vs reference with no compound
# GSK3β(h) = GSK3β(h) (Homo sapiens, UniProt P49841); test: kinase panel activity, GSK3β(h); type: biochemical; settings: compound at 20 μM; vs reference with no compound
# NEK2(h) = NEK2(h) (Homo sapiens, UniProt P51955); test: kinase panel activity, NEK2(h); type: biochemical; settings: compound at 20 μM; vs reference with no compound
# Rsk2(h), sequence (P51812 whole entry): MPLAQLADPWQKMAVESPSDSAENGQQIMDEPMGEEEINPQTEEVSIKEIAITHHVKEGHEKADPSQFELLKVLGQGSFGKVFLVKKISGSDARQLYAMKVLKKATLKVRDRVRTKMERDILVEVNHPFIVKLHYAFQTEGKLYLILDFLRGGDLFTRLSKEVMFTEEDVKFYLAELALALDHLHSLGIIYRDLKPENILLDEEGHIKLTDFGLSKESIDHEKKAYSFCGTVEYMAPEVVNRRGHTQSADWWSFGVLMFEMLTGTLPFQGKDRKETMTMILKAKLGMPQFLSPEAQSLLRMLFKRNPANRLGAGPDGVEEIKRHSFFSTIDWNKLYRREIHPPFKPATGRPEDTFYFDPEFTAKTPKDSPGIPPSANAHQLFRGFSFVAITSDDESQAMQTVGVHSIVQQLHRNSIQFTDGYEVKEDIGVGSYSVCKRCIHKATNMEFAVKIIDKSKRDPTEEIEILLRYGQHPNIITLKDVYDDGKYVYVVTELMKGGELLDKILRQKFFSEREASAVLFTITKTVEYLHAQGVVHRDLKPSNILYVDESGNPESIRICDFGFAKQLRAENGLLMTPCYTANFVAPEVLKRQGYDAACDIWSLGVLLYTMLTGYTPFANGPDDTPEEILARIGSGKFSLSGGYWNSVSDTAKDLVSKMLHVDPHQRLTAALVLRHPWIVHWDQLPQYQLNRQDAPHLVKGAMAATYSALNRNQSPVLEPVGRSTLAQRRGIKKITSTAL
# PKBγ(h), sequence (Q9Y243 whole entry): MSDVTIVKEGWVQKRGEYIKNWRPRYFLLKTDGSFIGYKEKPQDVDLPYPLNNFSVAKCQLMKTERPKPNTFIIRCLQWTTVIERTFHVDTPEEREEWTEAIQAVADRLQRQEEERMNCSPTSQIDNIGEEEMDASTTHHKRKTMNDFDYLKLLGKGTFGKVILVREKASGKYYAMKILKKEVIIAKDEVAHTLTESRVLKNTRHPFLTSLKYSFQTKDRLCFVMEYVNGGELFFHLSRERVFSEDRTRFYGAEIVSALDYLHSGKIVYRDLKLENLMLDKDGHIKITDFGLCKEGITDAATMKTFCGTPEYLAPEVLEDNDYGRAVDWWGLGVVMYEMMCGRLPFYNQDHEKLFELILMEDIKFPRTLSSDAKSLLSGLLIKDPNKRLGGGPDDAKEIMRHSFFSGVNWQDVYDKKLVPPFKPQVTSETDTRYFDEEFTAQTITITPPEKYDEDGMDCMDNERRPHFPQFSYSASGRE
# IRR(h), sequence (P14616 27-1297): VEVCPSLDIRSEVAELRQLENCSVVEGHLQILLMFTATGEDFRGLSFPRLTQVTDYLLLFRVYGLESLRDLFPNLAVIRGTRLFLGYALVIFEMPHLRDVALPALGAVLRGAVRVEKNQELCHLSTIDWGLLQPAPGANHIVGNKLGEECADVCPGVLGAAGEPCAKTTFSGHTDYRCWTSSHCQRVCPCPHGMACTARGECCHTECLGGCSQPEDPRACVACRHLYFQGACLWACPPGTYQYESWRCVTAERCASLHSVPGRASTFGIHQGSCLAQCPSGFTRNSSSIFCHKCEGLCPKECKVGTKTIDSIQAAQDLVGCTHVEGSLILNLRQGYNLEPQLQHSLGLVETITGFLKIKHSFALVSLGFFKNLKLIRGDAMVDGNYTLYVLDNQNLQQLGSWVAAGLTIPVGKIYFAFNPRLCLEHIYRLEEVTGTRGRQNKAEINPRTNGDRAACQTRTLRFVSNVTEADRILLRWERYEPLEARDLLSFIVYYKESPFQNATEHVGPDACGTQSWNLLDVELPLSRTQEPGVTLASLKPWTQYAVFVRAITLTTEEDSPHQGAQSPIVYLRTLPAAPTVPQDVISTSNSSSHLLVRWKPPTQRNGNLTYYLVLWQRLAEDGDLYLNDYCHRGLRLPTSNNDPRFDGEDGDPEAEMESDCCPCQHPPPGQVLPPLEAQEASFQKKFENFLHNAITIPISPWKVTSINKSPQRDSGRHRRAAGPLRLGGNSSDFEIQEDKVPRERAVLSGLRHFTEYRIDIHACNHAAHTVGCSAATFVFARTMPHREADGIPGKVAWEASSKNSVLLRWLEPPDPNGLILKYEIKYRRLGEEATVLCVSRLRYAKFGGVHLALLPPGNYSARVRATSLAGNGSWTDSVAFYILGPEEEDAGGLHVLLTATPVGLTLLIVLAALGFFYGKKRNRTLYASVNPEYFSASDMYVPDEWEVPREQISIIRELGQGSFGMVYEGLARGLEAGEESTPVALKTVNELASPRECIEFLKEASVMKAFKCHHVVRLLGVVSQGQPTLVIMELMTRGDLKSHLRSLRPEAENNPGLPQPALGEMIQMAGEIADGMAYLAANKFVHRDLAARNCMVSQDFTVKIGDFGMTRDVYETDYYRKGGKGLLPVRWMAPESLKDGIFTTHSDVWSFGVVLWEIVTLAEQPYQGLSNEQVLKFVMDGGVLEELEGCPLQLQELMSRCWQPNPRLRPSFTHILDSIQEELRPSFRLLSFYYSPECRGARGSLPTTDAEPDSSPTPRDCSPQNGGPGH
# GSK3β(h), sequence (P49841 whole entry): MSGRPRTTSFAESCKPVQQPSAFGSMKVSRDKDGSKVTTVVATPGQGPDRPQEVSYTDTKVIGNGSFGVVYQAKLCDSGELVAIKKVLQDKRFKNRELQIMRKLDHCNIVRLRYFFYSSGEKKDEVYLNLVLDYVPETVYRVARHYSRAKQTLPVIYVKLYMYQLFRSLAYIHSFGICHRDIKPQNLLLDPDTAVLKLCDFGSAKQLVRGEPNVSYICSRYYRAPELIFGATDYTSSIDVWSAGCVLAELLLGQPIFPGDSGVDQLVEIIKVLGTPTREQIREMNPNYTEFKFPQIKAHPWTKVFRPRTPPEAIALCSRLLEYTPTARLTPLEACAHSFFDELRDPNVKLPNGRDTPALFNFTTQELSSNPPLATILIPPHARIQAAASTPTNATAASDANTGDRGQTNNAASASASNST
# TBK1(h), sequence (Q9UHD2 whole entry): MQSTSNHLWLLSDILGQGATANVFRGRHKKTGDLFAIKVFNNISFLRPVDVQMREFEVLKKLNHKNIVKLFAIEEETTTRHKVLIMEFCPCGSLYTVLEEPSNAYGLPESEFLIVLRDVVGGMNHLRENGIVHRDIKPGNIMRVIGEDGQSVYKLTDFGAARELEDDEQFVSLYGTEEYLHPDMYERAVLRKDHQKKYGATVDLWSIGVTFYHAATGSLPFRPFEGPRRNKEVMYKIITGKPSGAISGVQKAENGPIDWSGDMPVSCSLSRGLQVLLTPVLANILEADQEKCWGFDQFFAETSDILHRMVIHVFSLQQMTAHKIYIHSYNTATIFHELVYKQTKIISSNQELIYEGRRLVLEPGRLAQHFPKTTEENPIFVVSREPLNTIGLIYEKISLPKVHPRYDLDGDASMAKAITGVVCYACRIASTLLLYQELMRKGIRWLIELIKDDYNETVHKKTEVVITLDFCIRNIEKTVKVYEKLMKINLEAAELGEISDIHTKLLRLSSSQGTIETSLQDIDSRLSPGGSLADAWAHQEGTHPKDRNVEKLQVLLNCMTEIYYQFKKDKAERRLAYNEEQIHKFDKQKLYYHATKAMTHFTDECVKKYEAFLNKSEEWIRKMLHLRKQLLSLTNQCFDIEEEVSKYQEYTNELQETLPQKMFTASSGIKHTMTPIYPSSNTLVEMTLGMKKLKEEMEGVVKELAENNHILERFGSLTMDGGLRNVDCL
# IKKβ(h), sequence (O14920 whole entry): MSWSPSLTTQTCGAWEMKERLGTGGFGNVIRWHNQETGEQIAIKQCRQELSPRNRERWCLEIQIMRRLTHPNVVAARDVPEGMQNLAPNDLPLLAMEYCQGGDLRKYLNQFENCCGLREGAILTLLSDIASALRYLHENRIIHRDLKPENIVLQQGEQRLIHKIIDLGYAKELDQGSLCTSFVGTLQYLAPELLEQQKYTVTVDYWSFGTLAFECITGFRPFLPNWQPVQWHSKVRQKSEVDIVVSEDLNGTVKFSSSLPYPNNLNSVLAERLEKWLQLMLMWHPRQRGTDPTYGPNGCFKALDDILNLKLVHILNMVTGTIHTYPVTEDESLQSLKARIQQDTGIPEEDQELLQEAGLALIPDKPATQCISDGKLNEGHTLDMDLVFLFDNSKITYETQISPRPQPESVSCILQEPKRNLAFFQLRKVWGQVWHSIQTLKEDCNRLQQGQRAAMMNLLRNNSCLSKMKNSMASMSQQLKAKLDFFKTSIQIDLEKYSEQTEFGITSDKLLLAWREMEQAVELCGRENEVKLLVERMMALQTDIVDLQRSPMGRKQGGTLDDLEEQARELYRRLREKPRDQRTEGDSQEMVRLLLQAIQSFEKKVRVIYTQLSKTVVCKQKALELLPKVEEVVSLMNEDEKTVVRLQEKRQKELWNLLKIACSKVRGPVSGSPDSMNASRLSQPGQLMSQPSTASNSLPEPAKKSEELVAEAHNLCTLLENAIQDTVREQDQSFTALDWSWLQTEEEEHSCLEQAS
# ZAP-70(h), sequence (P43403 whole entry): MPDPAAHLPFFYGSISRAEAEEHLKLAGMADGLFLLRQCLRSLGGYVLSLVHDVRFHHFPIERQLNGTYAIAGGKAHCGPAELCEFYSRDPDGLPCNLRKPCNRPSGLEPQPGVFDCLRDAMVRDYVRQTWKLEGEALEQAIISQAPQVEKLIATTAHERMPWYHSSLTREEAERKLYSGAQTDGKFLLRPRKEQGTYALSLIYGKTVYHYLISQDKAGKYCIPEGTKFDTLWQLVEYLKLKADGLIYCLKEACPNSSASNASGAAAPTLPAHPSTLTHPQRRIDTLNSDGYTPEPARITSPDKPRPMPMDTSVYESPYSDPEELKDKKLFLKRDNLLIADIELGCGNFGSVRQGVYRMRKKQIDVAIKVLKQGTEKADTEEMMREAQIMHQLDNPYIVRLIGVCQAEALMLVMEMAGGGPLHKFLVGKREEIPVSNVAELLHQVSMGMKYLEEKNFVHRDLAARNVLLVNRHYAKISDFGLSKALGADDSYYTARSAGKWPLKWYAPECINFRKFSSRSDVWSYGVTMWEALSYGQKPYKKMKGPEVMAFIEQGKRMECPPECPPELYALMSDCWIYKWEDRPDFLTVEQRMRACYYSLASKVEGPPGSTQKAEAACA
smiles,measurement,setting,value
"O=C(O)[C@H]1O[C@@H](Oc2ccc(/C=C/c3cc(O)cc(O)c3)cc2)[C@H](O)[C@@H](O)[C@@H]1O [Res 4′-Gluc, resveratrol-4-glucuronide]",percent activity of LIMK1(h),LIMK1(h),91%
same,percent activity of PAK6(h),PAK6(h),128%
same,percent activity of PKG1β(h),PKG1β(h),58%
same,percent activity of cSRC(h),cSRC(h),54%
same,percent activity of NEK7(h),NEK7(h),112%
same,percent activity of IRR(h),IRR(h),93%
same,percent activity of CDK2/cyclinA(h),CDK2/cyclinA(h),98%
same,percent activity of IRAK1(h),IRAK1(h),100%
same,percent activity of CDK1/cyclinB(h),CDK1/cyclinB(h),104%
same,percent activity of JNK3(h),JNK3(h),105%
same,percent activity of MAPK1(h),MAPK1(h),106%
same,percent activity of SAPK2b(h),SAPK2b(h),111%
same,percent activity of ZAP-70(h),ZAP-70(h),125%
same,percent activity of ALK4(h),ALK4(h),104%
same,percent activity of CHK2(h),CHK2(h),95%
same,percent activity of CDK2/cyclinE(h),CDK2/cyclinE(h),106%
same,percent activity of TBK1(h),TBK1(h),80%
same,percent activity of PKBγ(h),"PKBγ(h); compound at 20 μM, vs reference with no compound",101%
same,percent activity of CDK3/cyclinE(h),CDK3/cyclinE(h),101%
same,percent activity of PKA(h),PKA(h),105%
same,percent activity of CHK1(h),CHK1(h),117%
same,percent activity of CDK6/cyclinD3(h),CDK6/cyclinD3(h),95%
same,percent activity of IR(h),IR(h),80%
same,percent activity of MAPK2(h),MAPK2(h),105%
same,percent activity of SIK(h),SIK(h),74%
same,percent activity of AMPK(r),AMPK(r),43%
same,percent activity of Snk(h),Snk(h),87%
same,percent activity of IGF-1R(h),IGF-1R(h),87%
same,percent activity of MSK1(h),MSK1(h),110%
same,percent activity of SAPK3(h),SAPK3(h),106%
same,percent activity of GSK3α(h),GSK3α(h),57%
same,percent activity of EphB2(h),EphB2(h),109%
same,percent activity of Tie2(h),Tie2(h),76%
same,percent activity of TAK1(h),TAK1(h),113%
same,percent activity of Rsk2(h),Rsk2(h),100%
same,percent activity of JNK2α2(h),JNK2α2(h),123%
same,percent activity of IKKβ(h),IKKβ(h),98%
same,percent activity of TrkA(h),TrkA(h),32%
same,percent activity of GSK3β(h),GSK3β(h),88%
same,percent activity of NEK2(h),NEK2(h),103%
"Oc1ccc(C=Cc2cc(O)cc(O)c2)cc1 [resveratrol, 3,5,4′-trihydroxystilbene]",percent activity of LIMK1(h),LIMK1(h),84%
same,percent activity of PAK6(h),PAK6(h),103%
same,percent activity of PKG1β(h),PKG1β(h),56%
same,percent activity of cSRC(h),cSRC(h),61%
same,percent activity of NEK7(h),NEK7(h),116%
same,percent activity of IRR(h),IRR(h),40%
same,percent activity of CDK2/cyclinA(h),CDK2/cyclinA(h),80%
same,percent activity of IRAK1(h),IRAK1(h),97%
same,percent activity of CDK1/cyclinB(h),CDK1/cyclinB(h),67%
same,percent activity of JNK3(h),JNK3(h),98%
same,percent activity of MAPK1(h),MAPK1(h),94%
same,percent activity of SAPK2b(h),SAPK2b(h),100%
same,percent activity of ZAP-70(h),ZAP-70(h),141%
same,percent activity of ALK4(h),ALK4(h),110%
same,percent activity of CHK2(h),CHK2(h),59%
same,percent activity of CDK2/cyclinE(h),CDK2/cyclinE(h),80%
same,percent activity of TBK1(h),TBK1(h),62%
same,activity at 20 µM,PKBγ(h); read-out: percent activity of PKBγ(h),89%
same,percent activity of CDK3/cyclinE(h),CDK3/cyclinE(h),75%
same,percent activity of PKA(h),PKA(h),100%
same,percent activity of CHK1(h),CHK1(h),95%
same,percent activity of CDK6/cyclinD3(h),CDK6/cyclinD3(h),55%
same,percent activity of IR(h),IR(h),71%
same,percent activity of MAPK2(h),MAPK2(h),101%
same,percent activity of SIK(h),SIK(h),76%
same,percent activity of AMPK(r),AMPK(r),39%
same,percent activity of Snk(h),Snk(h),81%
same,percent activity of IGF-1R(h),IGF-1R(h),75%
same,percent activity of MSK1(h),MSK1(h),58%
same,percent activity of SAPK3(h),SAPK3(h),110%
same,percent activity of GSK3α(h),GSK3α(h),79%
same,percent activity of EphB2(h),EphB2(h),113%
same,percent activity of Tie2(h),Tie2(h),94%
same,percent activity of TAK1(h),TAK1(h),105%
same,inhibition at 20 µM,Rsk2(h),68%
same,percent activity of Rsk2(h),Rsk2(h),32%
same,percent activity of JNK2α2(h),JNK2α2(h),110%
same,percent activity of IKKβ(h),IKKβ(h),116%
same,percent activity of TrkA(h),TrkA(h),31%
same,percent activity of GSK3β(h),GSK3β(h),92%
same,percent activity of NEK2(h),NEK2(h),102%
